# Entries after “also recorded” stand apart in the source; their conditions may differ. Where two headings read alike, the source gives them in different places.
# Legend:
# [1] = target: T1, full length (ER)β (Homo sapiens, UniProt Q92731); test: Estrogen receptor binding assay (spin column, [3H]estradiol competition), (ER)β
# T1 construct: to full length (ER)α or (ER)β*; purchased PanVera Corp, Madison, Wis., USA
# [2] = target: T2, full length (ER)α (Homo sapiens, UniProt P03372); test: Estrogen receptor binding assay (spin column, [3H]estradiol competition), (ER)α
# T2 construct: purchased PanVera Corp, Madison, Wis., USA
# T2 sequence (P03372 1-595): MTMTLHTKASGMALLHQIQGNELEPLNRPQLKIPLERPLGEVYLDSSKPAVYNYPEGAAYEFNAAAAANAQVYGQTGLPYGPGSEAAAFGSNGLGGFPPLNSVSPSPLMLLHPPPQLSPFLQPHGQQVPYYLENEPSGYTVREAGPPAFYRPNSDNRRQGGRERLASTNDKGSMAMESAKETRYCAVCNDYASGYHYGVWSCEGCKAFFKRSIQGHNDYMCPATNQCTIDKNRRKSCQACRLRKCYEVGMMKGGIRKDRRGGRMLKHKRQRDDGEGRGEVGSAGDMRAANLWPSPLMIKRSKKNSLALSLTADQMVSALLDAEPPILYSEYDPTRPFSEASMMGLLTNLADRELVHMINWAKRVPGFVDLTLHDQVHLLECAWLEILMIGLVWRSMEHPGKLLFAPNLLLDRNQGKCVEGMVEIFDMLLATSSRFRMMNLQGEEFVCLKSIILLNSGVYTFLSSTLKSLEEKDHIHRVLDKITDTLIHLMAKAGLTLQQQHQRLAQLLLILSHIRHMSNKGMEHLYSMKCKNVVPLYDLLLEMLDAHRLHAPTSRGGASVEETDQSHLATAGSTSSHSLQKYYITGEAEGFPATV
# [3] = test system: GABAB receptor-mediated outward current in hypothalamic arcuate (dopamine, POMC) neurons; membrane associated estrogen receptor; test: Whole-cell patch voltage clamp: baclofen-induced GABAB response (GIRK outward current) in hypothalamic arcuate neurons; assay type: cell-based, guinea pig
# [4] = test system: uteri of ovariectomized C57BL/6 mice; test: Uterine size and weight in ovariectomized mice (uterotropic action); assay type: in vivo; conditions: 1 μg daily for 2 days, compared with oil vehicle
# Protocol: Wild-type C57BL/6 mice in these studies were obtained from Jackson laboratories. All animals were maintained under controlled temperature (25° C.) and photoperiod conditions (14-h light, 10-h dark; lights on between 0700 and 2100) with food and water ad libitum. Adult mice were ovariectomized under isoflurane anesthesia, and allowed to recover for 1 week. […] The uteri were collected, weighed and fixed in 4% paraformaldehyde for later histological analysis (data not shown).
# [5] = 10 μM (PD98059 in the pipette), together with 17β-estradiol
# T1 sequence (Q92731 whole entry): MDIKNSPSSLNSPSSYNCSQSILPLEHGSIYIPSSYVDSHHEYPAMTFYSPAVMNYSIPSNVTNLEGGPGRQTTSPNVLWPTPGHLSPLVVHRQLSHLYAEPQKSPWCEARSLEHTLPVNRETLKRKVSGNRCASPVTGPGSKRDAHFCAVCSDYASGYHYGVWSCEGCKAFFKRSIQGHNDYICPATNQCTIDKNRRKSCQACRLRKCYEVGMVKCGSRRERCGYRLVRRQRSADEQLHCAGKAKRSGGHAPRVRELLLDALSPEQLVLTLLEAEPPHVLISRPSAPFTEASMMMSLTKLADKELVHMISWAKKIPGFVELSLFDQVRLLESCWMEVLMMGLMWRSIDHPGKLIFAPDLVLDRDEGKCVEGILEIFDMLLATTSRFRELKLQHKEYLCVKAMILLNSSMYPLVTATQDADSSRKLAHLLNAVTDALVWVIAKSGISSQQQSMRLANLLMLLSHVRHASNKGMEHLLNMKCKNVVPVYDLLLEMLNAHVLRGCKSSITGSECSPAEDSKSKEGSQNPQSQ
compound,measurement,setting,value
4-hydroxytamoxifen,Relative binding affinity (ER)β,[1],43%
same,Relative binding affinity (ER)α,[2],36%
same,block of the baclofen response,[3],25%
same,effect on the baclofen response (in words),[3],behave like 17β-estradiol
17β-estradiol 17-hemisuccinate: BSA [17β-estradiol-BSA],effect on the baclofen response (in words),"[3]; 100 nM, substance alone",fully efficacious in inhibiting the baclofen response; also recorded: inhibited the baclofen response; also recorded: identical response to free 17β-estradiol
C[C@]12CC[C@@H]3c4ccc(O)cc4CC[C@H]3[C@@H]1CC[C@H]2O [17α-estradiol],effect on the baclofen response (in words),"[3]; 1 μM, substance alone",no effect; also recorded: inactive; also recorded: no effects were observed
C[C@]12CC[C@@H]3c4ccc(O)cc4CC[C@H]3[C@@H]1CC[C@@H]2O [17β-estradiol],R2/R1 (second over first baclofen response),[3],58.6±3.4%
same,decrease in the response to a second application of baclofen (GABAB outward current),[3],41%
same,effect on the baclofen response (in words),"[3]; 100 nM, substance alone",no effect
"O=C(O)CN(CC(=O)O)c1ccccc1OCCOc1ccccc1N(CC(=O)O)CC(=O)O [BAPTA, 1,2-bis-(o-aminophenoxyethane)-N,N,N′,N′-tetraacetic acid]",effect on the 17β-estradiol attenuation of the baclofen response (in words),"[3]; 10 mM in the internal solution replacing EGTA, with 17β-estradiol",still observed
"CN(C)CCCn1cc(C2=C(c3c[nH]c4ccccc34)C(=O)NC2=O)c2ccccc21.Cl [BIS, bisindolylmaleimide I hydrochloride]",effect on the 17β-estradiol attenuation of the baclofen response (in words),[3],nearly eliminated the effects of 17β-estradiol
Cl.Cl.O=S(=O)(NCCNC/C=C/c1ccc(Br)cc1)c1cccc2cnccc12 [Compound H89],effect on the 17β-estradiol attenuation of the baclofen response (in words),[3]; [5],blocked
N#CC(=C(/N)Sc1ccccc1N)/C(C#N)=C(/N)Sc1ccccc1N [Compound U0126],effect on the 17β-estradiol attenuation of the baclofen response (in words),"[3]; 5 μM, with 17β-estradiol",did not affect 17β-estradiol inhibition of baclofen responses
COc1ccc2c(c1)CC[C@@H]1[C@@H]2CC[C@]2(C)[C@@H](NCCCCCCN3C(=O)C=CC3=O)CC[C@@H]12 [Compound U73122],effect on the 17β-estradiol attenuation of the baclofen response (in words),[3]; [5],blocked
COc1ccc2c(c1)CC[C@@H]1[C@@H]2CC[C@]2(C)[C@@H](NCCCCCCN3C(=O)CCC3=O)CC[C@@H]12 [Compound U73343],effect on the 17β-estradiol attenuation of the baclofen response (in words),[3]; [5],no effect
CC/C(=C(\c1ccccc1)c1ccc(/C=C/C(=O)O)cc1)c1ccccc1 [GW-5638],effect on the baclofen response (in words),"[3]; 1 μM, substance alone",significantly more efficacious than 17β-estradiol; also recorded: behave like 17β-estradiol
Cn1c2ccccc2c2c3c(c4c5ccccc5n(CCC#N)c4c21)CNC3=O [Gö6976],effect on the 17β-estradiol attenuation of the baclofen response (in words),"[3]; concentration not given, with 17β-estradiol",without effect
"C[C@]12CC[C@@H]3c4ccc(O)cc4C[C@@H](CCCCCCCCC[S+]([O-])CCCC(F)(F)C(F)(F)F)[C@H]3[C@@H]1CC[C@@H]2O (some centres unmarked) [ICI 182,780]",effect on the baclofen response (in words),"[3]; 1 μM, substance alone",no effect
same,effect on the 17β-estradiol attenuation of the baclofen response (in words),"[3]; 1 μM, together with 17β-estradiol (100 nM)",blocked
same,effect on the 17β-estradiol attenuation of the baclofen response (in words),"[3]; 1 μM, together with 17β-estradiol (100 nM), listed as ICI-182,780",antagonizes the 17β-estradiol response
COc1cccc(-c2cc(=O)c3ccccc3o2)c1N [PD98059],effect on the 17β-estradiol attenuation of the baclofen response (in words),[3]; [5],did not affect 17β-estradiol inhibition of baclofen responses
same,"R2/R1 (second over first baclofen response), substance + 17β-estradiol",[3]; substance 10 μM in the pipette together with 17β-estradiol,66.1±11.8%
"O=C(c1ccc(OCCN2CCCCC2)cc1)c1c(-c2ccc(O)cc2)sc2cc(O)ccc12 [Raloxifene, raloxifene]",effect on the baclofen response (in words),[3],completely mimicked the actions of 17β-estradiol; also recorded: behave like 17β-estradiol
Nc1ncnc2c1ncn2[C@@H]1O[C@@H]2COP(O)(=S)O[C@H]2[C@H]1O (some centres unmarked) [Rp-cAMP],effect on the 17β-estradiol attenuation of the baclofen response (in words),"[3]; 200 μM, intracellular dialysis, with 17β-estradiol",abolished
"CC/C(=C(\c1ccccc1)c1ccc(OCCN(C)C)cc1)c1ccccc1 [Tamoxifen, tamoxifen]",effect on the 17β-estradiol attenuation of the baclofen response (in words),[3],did not attenuate the effects of 17β-estradiol
same,effect on the baclofen response (in words),[3],inactive
C[C@]12CC[C@@H]3c4ccc(OC(=O)c5ccccc5)cc4CC[C@H]3[C@@H]1CC[C@@H]2O [estradiol benzoate],uterine size,[4],noticeable increase in uterine size
CC(=O)c1c(O)c(C)c(O)c(Cc2c(O)c3c(c(C(=O)/C=C/c4ccccc4)c2O)OC(C)(C)C=C3)c1O [rottlerin],effect on the 17β-estradiol attenuation of the baclofen response (in words),[3],completely blocked
Ac-LGLNLKEYNLV-OH [Gq peptide],effect on the 17β-estradiol attenuation of the baclofen response (in words),[3],significantly blocked

# — patent US8236987B2, “Selective estrogen receptor modulator compositions and methods for treatment of disease” (The Regents of the University of California, priority 2007, dated 2012)
